Results on 35 compounds are retold here after patent US20090281099A1, “SUBSTITUTED PYRAZINONE DERIVATIVES FOR USE AS A MEDICINE” (priority 2006, published 2009).

Where two headings read alike, the source gives them in different places.

One experiment deals with T1, hα2A receptor (Homo sapiens, UniProt P08913).
T1 construct: expressed in transfected cells
T1 sequence (P08913 1-465): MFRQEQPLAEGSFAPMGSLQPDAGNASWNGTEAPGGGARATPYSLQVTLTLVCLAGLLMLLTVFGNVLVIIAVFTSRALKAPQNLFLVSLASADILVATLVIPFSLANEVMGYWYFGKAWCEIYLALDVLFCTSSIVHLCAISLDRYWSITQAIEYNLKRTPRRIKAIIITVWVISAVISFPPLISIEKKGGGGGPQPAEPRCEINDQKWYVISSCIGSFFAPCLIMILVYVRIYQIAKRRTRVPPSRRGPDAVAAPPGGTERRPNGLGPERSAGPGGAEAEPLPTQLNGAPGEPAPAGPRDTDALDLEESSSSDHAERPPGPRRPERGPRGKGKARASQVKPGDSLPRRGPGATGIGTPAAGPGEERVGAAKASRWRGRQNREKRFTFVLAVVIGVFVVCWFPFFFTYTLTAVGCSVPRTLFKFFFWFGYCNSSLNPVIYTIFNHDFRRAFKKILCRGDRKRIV
Description: Radioligand binding experiment for hα2A receptor ([3H]-raulwolscine, CHO cell membranes). The following applies: read-out: h-α2A pIC50 (converted).

The target in a further experiment is T2, hα2C receptor (Homo sapiens, UniProt P18825).
T2 construct: expressed in transfected cells
T2 sequence (P18825 1-462): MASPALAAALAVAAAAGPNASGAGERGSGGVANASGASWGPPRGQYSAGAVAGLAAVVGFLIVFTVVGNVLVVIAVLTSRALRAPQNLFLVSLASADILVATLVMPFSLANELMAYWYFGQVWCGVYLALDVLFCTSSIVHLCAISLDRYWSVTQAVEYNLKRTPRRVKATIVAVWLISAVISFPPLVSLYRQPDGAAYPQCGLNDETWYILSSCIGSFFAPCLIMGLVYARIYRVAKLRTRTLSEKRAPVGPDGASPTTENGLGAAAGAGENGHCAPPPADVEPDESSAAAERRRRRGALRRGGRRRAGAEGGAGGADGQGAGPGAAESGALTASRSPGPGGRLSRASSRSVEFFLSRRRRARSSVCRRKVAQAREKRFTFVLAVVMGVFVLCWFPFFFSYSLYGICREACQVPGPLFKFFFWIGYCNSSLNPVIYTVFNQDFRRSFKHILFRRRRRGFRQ
Description: Radioligand binding experiment for α2C-adrenoceptor ([3H]-raulwolscine, CHO cell membranes). The following applies: read-out: h-α2C pIC50 (converted).

For a further experiment, the target named is T3, 5HT-Transporter (Homo sapiens, UniProt P31645).
T3 construct: Human platelet membranes (Oceanix Biosciences Corporation, Hanover, Md., USA) were thawed; tissue Oceanix Biosciences Corporation; host or cells: human platelet membranes
T3 sequence (P31645 whole entry): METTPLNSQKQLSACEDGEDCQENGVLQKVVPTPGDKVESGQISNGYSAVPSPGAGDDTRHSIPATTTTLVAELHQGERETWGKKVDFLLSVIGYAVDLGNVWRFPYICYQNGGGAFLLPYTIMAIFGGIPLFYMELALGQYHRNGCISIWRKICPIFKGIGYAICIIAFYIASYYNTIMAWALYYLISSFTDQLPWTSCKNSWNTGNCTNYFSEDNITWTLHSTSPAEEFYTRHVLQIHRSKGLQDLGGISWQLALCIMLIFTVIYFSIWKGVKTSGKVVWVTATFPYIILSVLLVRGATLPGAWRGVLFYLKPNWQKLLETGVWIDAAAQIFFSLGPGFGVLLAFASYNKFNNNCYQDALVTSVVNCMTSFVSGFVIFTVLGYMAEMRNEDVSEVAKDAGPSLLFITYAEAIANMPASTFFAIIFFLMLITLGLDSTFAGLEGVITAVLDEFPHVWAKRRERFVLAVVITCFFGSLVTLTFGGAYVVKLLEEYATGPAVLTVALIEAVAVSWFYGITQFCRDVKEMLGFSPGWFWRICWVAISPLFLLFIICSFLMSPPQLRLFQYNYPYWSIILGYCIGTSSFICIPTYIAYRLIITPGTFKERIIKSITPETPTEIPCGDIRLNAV
Description: Binding experiment for the 5HT-transporter ([3H]paroxetine, human platelet membranes). The following applies: [3H]paroxetine 0.5 nM, read-out: h-5HTT pIC50 (converted).

[1] abbreviates: [3H]raulwolscine 1 nM, membranes of CHO cells transfected with human α2A receptor.
Setting [2] is: [3H]raulwolscine 1 nM, membranes of CHO cells transfected with human α2C receptor.

With `O=c1c(NC2CCN(CCOc3ccccc3)CC2)nccn1Cc1cccc(Br)c1` [Compound 4-2], the results for the IC50 at hα2A receptor (setting [1]), on hα2C receptor (setting [2]) and at 5HT-Transporter were 158 nM, 15.8 nM and 1580 nM, respectively.
For `O=c1c(NC2CCN(CCOc3ccccc3)CC2)nccn1-c1cccc(NCc2ccccc2)c1` [Compound 1-12] the same measures were 50.1 nM, 3.98 nM and 2510 nM.
In the same order, the values of `O=c1c(NC2CCN(CCOc3ccccc3)CC2)nccn1CC1CCCCC1` [Compound 5-3] are 251 nM, 25.1 nM and 1000 nM.
In the same order, the values of `O=C(Cn1ccnc(NC2CCN(CCOc3ccccc3)CC2)c1=O)NCc1ccc(F)cc1` [Compound 1-14] are 251 nM, 2.51 nM and 7940 nM.
Take `O=c1c(NC2CCN(CCOc3ccccc3)CC2)nccn1-c1ccc(N2CCCCC2)cc1` [Compound 2-4]: the values for the IC50 at hα2A receptor (setting [1]), on hα2C receptor (setting [2]) and on 5HT-Transporter were 200 nM, 20 nM and 2510 nM, respectively.
For `CC(C)(C)C(=O)Cn1ccnc(NC2CCN(CCOc3ccccc3)CC2)c1=O` [Compound 5-5], the IC50 on hα2A receptor (setting [1]) was 158 nM; on hα2C receptor (setting [2]), 7.94 nM; on 5HT-Transporter, > 10000 nM.
As for `O=C(Cn1ccnc(NC2CCN(CCOc3ccccc3)CC2)c1=O)NCCCc1ccccc1` [Compound 1-17], the IC50 was 316 nM on hα2A receptor (setting [1]), 12.6 nM on hα2C receptor (setting [2]) and 2510 nM on 5HT-Transporter.
As for `O=c1c(NC2CCN(CCOc3ccccc3)CC2)nccn1Cc1ccc2ccccc2n1` [Compound 6-3], the IC50 on hα2A receptor (setting [1]) was 200 nM; at hα2C receptor (setting [2]) it was 7.94 nM; at 5HT-Transporter, 2510 nM.
For `O=c1c(N2CCN(CCOc3ccc(F)cc3)CC2)nccn1CCOc1ccccc1` [Compound 9-2] the same measures were 200 nM, 251 nM and 2510 nM.
In the case of `O=c1c(N2CCN(CCOc3ccc(F)cc3)CC2)nccn1Cc1ccco1` [Compound 12-1], the IC50 is 200 nM at hα2A receptor (setting [1]), 251 nM at hα2C receptor (setting [2]) and > 10000 nM on 5HT-Transporter.
In the same order, the values of `CN(Cc1ccccc1)C(=O)Cn1ccnc(NC2CCN(CCOc3ccccc3)CC2)c1=O` [Compound 1-13] are 126 nM, 3.98 nM and 5010 nM.
Regarding `O=c1c(NC2CCN(CCOc3ccccc3)CC2)nccn1Cc1ccc2ccccc2c1` [Compound 4-7], the IC50 on hα2A receptor (setting [1]) was 79.4 nM; on hα2C receptor (setting [2]) it was 20 nM; on 5HT-Transporter, 794 nM.
On to `Cc1nc(Cn2ccnc(N3CCN(CCOc4ccc(F)cc4)CC3)c2=O)cs1` [Compound 12-3], for which the IC50 on hα2A receptor (setting [1]) was 251 nM; at hα2C receptor (setting [2]) it was 316 nM; on 5HT-Transporter, > 10000 nM.
In the same order, the values of `O=C(Cn1ccnc(NC2CCN(CCOc3ccccc3)CC2)c1=O)NCC(c1ccccc1)c1ccccc1` [Compound 1-19] are 158 nM, 5.01 nM and 3160 nM.
For `O=c1c(N2CCN(CCOc3ccc(F)cc3)CC2)nccn1CC1CCCCC1` [Compound 13-3] the same measures were 501 nM, 251 nM and 7940 nM.
As for `CN(C)CCN(Cc1ccccc1)C(=O)Cn1ccnc(NC2CCN(CCOc3ccccc3)CC2)c1=O` [Compound 1-21], the IC50 is 20 nM on hα2A receptor (setting [1]), 0.794 nM on hα2C receptor (setting [2]) and 1580 nM at 5HT-Transporter.
With `CCCn1ccnc(NC2CCN(CCOc3ccccc3)CC2)c1=O` [Compound 5-2], the IC50 on hα2A receptor (setting [1]) is 100 nM; on hα2C receptor (setting [2]) it was 15.8 nM; at 5HT-Transporter, > 10000 nM.
In the same order, the values of `O=C(Cn1ccnc(NC2CCN(CCOc3ccccc3)CC2)c1=O)N1CCC(C(F)(F)F)CC1` [Compound 2-6] are 100 nM, 3.98 nM and > 10000 nM.
On to `NCc1ccc(Cn2ccnc(NC3CCN(CCOc4ccccc4)CC3)c2=O)cc1` [Compound 1-2], for which the results for the IC50 on hα2A receptor (setting [1]), on hα2C receptor (setting [2]) and at 5HT-Transporter were 15.8 nM, 1.58 nM and 7940 nM, respectively.
In the same order, the values of `O=c1c(NC2CCN(CCOc3ccccc3)CC2)nccn1Cc1ccccc1Br` [Compound 4-1] are 158 nM, 7.94 nM and 2510 nM.
For `CC(C)(C)OC(=O)NCCCn1ccnc(NC2CCN(CCOc3ccccc3)CC2)c1=O` [Compound 1-20] the same measures were 126 nM, 2.51 nM and 6310 nM.
For `CCCn1ccnc(N2CCN(CCOc3ccc(F)cc3)CC2)c1=O` [Compound 13-2] the same measures were 631 nM, 398 nM and > 10000 nM.
In the case of `O=C1c2ccccc2C(=O)N1CC#CCn1ccnc(NC2CCN(CCOc3ccccc3)CC2)c1=O` [Compound 2-16], the IC50 on hα2A receptor (setting [1]) was 501 nM; on hα2C receptor (setting [2]), 7.94 nM; on 5HT-Transporter, 1260 nM.
On to `O=c1c(NC2CCN(CCOc3ccccc3)CC2)nccn1Cc1ccncc1` [Compound 6-2], for which the IC50 on hα2A receptor (setting [1]) is 398 nM; on hα2C receptor (setting [2]) it was 39.8 nM; on 5HT-Transporter, > 10000 nM.
For `CN(C)C(=O)Cn1ccnc(N2CCN(CCOc3ccc(F)cc3)CC2)c1=O` [Compound 7-2] the same measures were 316 nM, 501 nM and > 10000 nM.
For `CN(C)CCn1ccnc(NC2CCN(CCOc3ccccc3)CC2)c1=O` [Compound 1-3] the same measures were 158 nM, 20 nM and > 10000 nM.
In the case of `O=C(Cn1ccnc(NC2CCN(CCOc3ccccc3)CC2)c1=O)N1CCN(Cc2ccccc2)CC1` [Compound 2-12], the values for the IC50 at hα2A receptor, at hα2C receptor and at 5HT-Transporter were 200 nM, 2.51 nM and 6310 nM, respectively.
As to `O=c1c(NC2CCN(CCOc3ccccc3)CC2)nccn1-c1ccc(CN2CCCCC2)cc1` [Compound 2-5], the values for the IC50 at hα2A receptor (setting [1]), on hα2C receptor (setting [2]) and at 5HT-Transporter were 100 nM, 1 nM and 3980 nM, respectively.
For `CN(C(=O)Cn1ccnc(NC2CCN(CCOc3ccccc3)CC2)c1=O)C1CCCCC1` [Compound 1-6] the same measures were 126 nM, 2 nM and 7940 nM.
For `O=c1c(NC2CCN(CCOc3ccccc3)CC2)nccn1CCN1CCOCC1` [Compound 2-13] the same measures were 631 nM, 20 nM and > 10000 nM.
In the same order, the values of `O=c1c(N2CCN(CCOc3ccc(F)cc3)CC2)nccn1CCN1CCCCC1` [Compound 8-1] are 631 nM, 100 nM and 7940 nM.
Take `O=C1c2ccccc2C(=O)N1CCCn1ccnc(NC2CCN(CCOc3ccccc3)CC2)c1=O` [Compound 2-15]: the IC50 at hα2A receptor (setting [1]) is 200 nM; at hα2C receptor (setting [2]) it was 1.26 nM; on 5HT-Transporter, 1000 nM.
With `O=c1c(N2CCN(CCOc3ccc(F)cc3)CC2)nccn1Cc1ccccc1` [Compound 11-1], the IC50 at hα2A receptor (setting [1]) was 100 nM; at hα2C receptor (setting [2]), 200 nM; at 5HT-Transporter, > 10000 nM.
With `O=C(Cn1ccnc(N2CCN(CCOc3ccc(F)cc3)CC2)c1=O)c1ccccc1` [Compound 11-5], the IC50 is 158 nM on hα2A receptor (setting [1]), 158 nM on hα2C receptor (setting [2]) and 3980 nM on 5HT-Transporter.
For `O=c1c(N2CCN(CCOc3ccc(F)cc3)CC2)nccn1C/C=C/c1ccccc1` [Compound 11-4], the results for the IC50 on hα2A receptor (setting [1]), on hα2C receptor (setting [2]) and on 5HT-Transporter were 251 nM, 200 nM and 1580 nM, respectively.
